In PubChem BioAssay AID2060885 (Molecular Pharmacology Branch, DTP, NCI, 2025) one finds viability, T/C and IC50 data, which are given here for 6 molecules.

Usually viability, T/C stands for the result in the treated group divided by that in the control group, in per cent. A word on the IC50: it is the midpoint of a concentration-inhibition curve.

Values joined by “and” are separate entries in the source; they are usually repeats but may differ in a detail not shown here. Equal values may be shown once.

The test concerns NCI-H23 complex spheroids with HUVEC/MSC, viability. As to the kind of experiment: Anticancer human tumor NCI-H23 cell line growth inhibition [RAS].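 As to all read-outs here: spheroids exposed to compound for 7 days.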 The settings on record: for viability, T/C: stronger effect = lower value. The text has this: RAS pathway inhibitors in Combinations in Complex Spheroids
A high-throughput screen of multi-cell type tumor spheroids was designed to identify active combinations of RAS pathway inhibitors and targeted small molecules. Complex spheroids include a stromal component modeled by human endothelial cells (HUVEC) and fibroblasts modeled by human mesenchymal stem cells (MSCs). The concentration ranges selected for each drug and investigational agent were based upon clinically achievable concentrations if the clinical Cmax of the agent was known.
Compounds. The drugs and investigational agents: abemaciclib (NSC768073), cobimetinib (NSC768068), divarasib (GDC6063, NSC841802), docetaxel (NSC628503), GDC-1971 (RLY-1971, NSC841576), gemcitabine (NSC613327), inavolisib (NSC800729), ipatasertib (NSC767898), KB-0742 (NSC834161), MRTX-1133 (NSC836407), osimertinib (NSC779217), RMC-4630 (NSC839698), RMC-6236 (NSC851965), RMC-6291 (NSC852671), Ro-3306 (NSC812927), sapanisertib (NSC764658), SN-38 (NSC673596), staurosporine (NSC755774), SY5609 (NSC837396), and tovorafenib (DAY101, NSC766906), were obtained from the National Cancer Institute (NCI) Developmental Therapeutics Program Chemical Repository. The FDA-approved anticancer drug set is available from the NCI Developmental Therapeutics Program. […] The stock solutions were prepared in dimethyl sulfoxide (DMSO, Sigma-Aldrich, St. Louis, MO, cat. D2650) at 800-fold the tested concentration and stored at -70 degrees C prior to their use. All drugs and investigational agents were tested over a range starting from a high concentration at or near the clinical Cmax and decreasing in half-log increments. If the clinical Cmax for an agent had not been determined, the highest concentration tested was 10 microM.
Cell Culture. All cells were maintained in an incubator at 37 degrees C and 5% CO2 with 95% humidity. The PDC lines were cultured according to standard operating procedures established by the NCI PDMR. All PDCs were thawed and cultured in Matrigel-coated flasks prepared with a working solution of 1X Ham's F-12 nutrient mix, without supplementation (Invitrogen, Waltham, MA, cat. 11765054), 100 U/mL penicillin-streptomycin (Invitrogen, cat. 15140122), and 2.5% Matrigel (Corning Inc., Corning, NY, cat. 354248) for the first three passages. The 362531-283-R-J2-PDC and 782815-120-R-J1-PDC lines were cultured in 6C/Colon 1B media, which includes advanced DMEM/F-12 (Thermo Fisher Scientific, cat. 12634028), 10 mM HEPES (Thermo Fisher Scientific, cat. 15630080), 1X GlutaMAX supplement (Thermo Fisher Scientific, cat. 35050061), 0.1 mg/mL primocin (InvivoGen, San Diego, CA, cat. ant-pm-2), 10% defined fetal bovine serum, heat inactivated (HyClone Laboratories Inc., Logan, UT, cat. SH30070.03HI), 50% L-WRN conditioned media (ATCC, cat. CRL-3276), 1.25 mM N-Acetyl-L-cysteine (Sigma-Aldrich, cat. A9165), 10 mM nicotinamide (Sigma-Aldrich, cat. N0636), 1X B-27 supplement (Thermo Fisher Scientific, cat. 17504044), 1X N-2 supplement (Thermo Fisher Scientific, cat. 17502048), 50 ng/mL human EGF (Thermo Fisher Scientific, cat. PHG0311), and 10 microM Y-27632 dihydrochloride (Tocris Bioscience, cat. 1254). The K12877-001-R-J1-PDC line was cultured in 6I media, which includes all 6C/Colon 1B media plus 10 ng/mL human FGF-10 (PeproTech, cat. 100-26), 1 ng/mL human FGF-2 (PeproTech, cat. 100-18B), 1 µM prostaglandin E2 (Tocris Bioscience, cat. 2296), […] hydrocortisone (Sigma-Aldrich, cat. H4001), and […] bovine insulin (Sigma-Aldrich, cat. I6634). The K86415-001-R-J1-PDC line was cultured in 6D media, which includes all 6C/Colon 1B media components minus the L-WRN conditioned media. The 485176-168-R4-J1-PDC was cultured in PANC media, which includes all 6C/Colon 1B media plus 100 ng/mL human FGF-10 (PeproTech, cat. 100-26), 500 nM SB-431542 (Selleckchem, cat. S1067), and 10 nM gastrin (Tocris Bioscience, cat. 3006). […]

Consider `CC(=O)OC12COC1CC(O)C1(C)C(=O)C(O)C3=C(C)C(OC(=O)C(O)C(NC(=O)OC(C)(C)C)c4ccccc4)CC(O)(C(OC(=O)c4ccccc4)C21)C3(C)C` (stereo not drawn), for which the viability, T/C is 31.2% [middle of 4 runs] (compound 0.0316 µM); 32.3% [middle of 4 runs] (compound 0.1 µM); 28.2% [middle of 4 runs] (compound 0.316 µM); 34.6% [middle of 4 runs] (compound 1 µM); 50.4% [middle of 4 runs] (compound 3.16 µM); 63.5% [middle of 4 runs] (compound 10 µM). In addition, the IC50 (curve of compound) is less than 31.6 nM.
In the case of `CC1(O)CCCC1n1c(=O)c(C(F)F)cc2cnc(NC3CCN(S(C)(=O)=O)CC3)nc21` (stereo not drawn), the viability, T/C (compound 0.0316 µM) was 94% [middle of 4 runs]; the viability, T/C (compound 0.316 µM) is 67.5% [middle of 4 runs]; the viability, T/C (compound 1 µM) is 80.9% [middle of 4 runs]; the viability, T/C (compound 3.16 µM) was 71.7% [middle of 4 runs]; the viability, T/C (compound 10 µM) is 14.3% [middle of 4 runs]. Moreover, under “curve of compound”, the IC50 is 4.68 µM [middle of 4 runs].
In the case of `CCC(CC)c1cc(NC2CCC(N)C2)n2nccc2n1` (stereo not drawn), the viability, T/C runs as follows: (compound 0.0316 µM) 106% and 101% and 105% (2×); (compound 0.1 µM) 108% [middle of 4 runs]; (compound 0.316 µM) 101% [middle of 4 runs]; (compound 1 µM) 88.2% [middle of 4 runs]; (compound 3.16 µM) 15.2% [middle of 4 runs]; (compound 10 µM) 0.91% [middle of 4 runs]. Moreover, the IC50 (curve of compound) was 1.81 µM [middle of 4 runs].
In the case of `Cc1nc(N2CCC3(CC2)COC(C)C3N)c(CO)nc1Sc1ccnc(N)c1Cl` (stereo not drawn), the viability, T/C is 103% [middle of 4 runs] (compound 0.0316 µM); 74.3% [middle of 4 runs] (compound 0.316 µM); 61.8% [middle of 4 runs] (compound 1 µM); 52.3% [middle of 4 runs] (compound 3.16 µM); 48.9% [middle of 4 runs] (compound 10 µM).
On to `NC1c2ccccc2OC12CCN(c1cnc3c(N4CCCc5ncccc54)n[nH]c3n1)CC2` (stereo not drawn), for which the viability, T/C (compound 0.0316 µM) was 72.5% [middle of 4 runs]; the viability, T/C (compound 0.1 µM) was 66.6% [middle of 4 runs]; the viability, T/C (compound 0.316 µM) is 44.9% [middle of 4 runs]; the viability, T/C (compound 1 µM) was 42.2% [middle of 4 runs]; the viability, T/C (compound 3.16 µM) was 41.3% [middle of 4 runs]; the viability, T/C (compound 10 µM) is 44.1% [middle of 4 runs].
In the case of `C=CC(=O)Nc1cc(Nc2nccc(-c3cn(C)c4ccccc34)n2)c(OC)cc1N(C)CCN(C)C` + C#Cc1c(F)ccc2cc(O)cc(-c3ncc4c(N5CC6CCC(C5)N6)nc(OCC56CCCN5CC(F)C6)nc4c3F)c12, the IC50 runs as follows: (curve of first compound, second compound 0.0316 µM) more than 1000 nM; (curve of first compound, second compound 0.1 µM) more than 1000 nM; (curve of first compound, second compound 0.316 µM) more than 1000 nM; (curve of first compound, second compound 1 µM) more than 1000 nM; (curve of first compound, second compound 3.16 µM) 81.8 nM; (curve of first compound, second compound 10 µM) less than 3.16 nM. In addition, the viability, T/C was 101% (second compound 0.0316 µM, first compound 0.00316 µM); 128% (second compound 0.0316 µM, first compound 0.01 µM); 101% (second compound 0.0316 µM, first compound 0.0316 µM); 99.2% (second compound 0.0316 µM, first compound 0.1 µM); 98.4% (second compound 0.0316 µM, first compound 0.316 µM); 102% (second compound 0.0316 µM, first compound 1 µM). The viability, T/C (second compound 0.1 µM, first compound 0.00316 µM) is 109%; the viability, T/C (second compound 0.1 µM, first compound 0.01 µM) is 113%; the viability, T/C (second compound 0.1 µM, first compound 0.0316 µM) is 95.7%; the viability, T/C (second compound 0.1 µM, first compound 0.1 µM) was 93.6%; the viability, T/C (second compound 0.1 µM, first compound 0.316 µM) is 101%; the viability, T/C (second compound 0.1 µM, first compound 1 µM) was 112%. Also, the viability, T/C runs as follows: (second compound 0.316 µM, first compound 0.00316 µM) 104%; (second compound 0.316 µM, first compound 0.01 µM) 122%; (second compound 0.316 µM, first compound 0.0316 µM) 95.5%; (second compound 0.316 µM, first compound 0.1 µM) 90%; (second compound 0.316 µM, first compound 0.316 µM) 89.8%; (second compound 0.316 µM, first compound 1 µM) 89.3%. For the same molecule, the viability, T/C reads like this: (second compound 1 µM, first compound 0.00316 µM) 107%; (second compound 1 µM, first compound 0.01 µM) 109%; (second compound 1 µM, first compound 0.0316 µM) 93%; (second compound 1 µM, first compound 0.1 µM) 86.6%; (second compound 1 µM, first compound 0.316 µM) 77.1%; (second compound 1 µM, first compound 1 µM) 85.3%. The viability, T/C was 64.5% (second compound 3.16 µM, first compound 0.00316 µM); 64.1% (second compound 3.16 µM, first compound 0.01 µM); 60.2% (second compound 3.16 µM, first compound 0.0316 µM); 47.3% (second compound 3.16 µM, first compound 0.1 µM); 43.5% (second compound 3.16 µM, first compound 0.316 µM); 52.8% (second compound 3.16 µM, first compound 1 µM). Besides, the viability, T/C (second compound 10 µM, first compound 0.00316 µM) was 41.9%; the viability, T/C (second compound 10 µM, first compound 0.01 µM) is 45.8%; the viability, T/C (second compound 10 µM, first compound 0.0316 µM) is 36.1%; the viability, T/C (second compound 10 µM, first compound 0.1 µM) is 34%; the viability, T/C (second compound 10 µM, first compound 0.316 µM) is 30%; the viability, T/C (second compound 10 µM, first compound 1 µM) was 30.1%.
